Data set [1] in a line: Selectivity ratio of IC50 for African green monkey Vero cells to MIC for Mycobacterium tuberculosis H37Rv ATCC 27294. The class given is toxicity. To be noted: read-out: Selectivity Index.
In data set [2] the test system is Mycobacterium tuberculosis. In words: Bacteriostatic activity against Mycobacterium tuberculosis Erdman infected in mouse bone marrow macrophage monolayers assessed as reduction in colony forming units at 4 fold MIC concentration after 7 days. It is filed as functional. To be noted: Erdman = ATCC 35801, 168 h.
Data set [3] deals with Mycobacterium tuberculosis. As to the kind of experiment: Antitubercular activity against Mycobacterium tuberculosis H37Rv ATCC 27294 by MABA. The class given is functional. In general terms: Alamar Blue is a resazurin reagent that responds to reducing activity.
Another data set has as its system Vero. In words: Cytotoxicity against African green monkey Vero cells assessed as reduction in cell viability after 72 hrs by MTT assay. It is filed as cell-based. To be noted: Chlorocebus sabaeus.
Data set [4] is described as follows: Ratio of EC90 for Mycobacterium tuberculosis Erdman infected in mouse bone marrow macrophage monolayers to MIC for Mycobacterium tuberculosis H37Rv ATCC 27294. It is filed as functional.
The subject of data set [5] is Mycobacterium tuberculosis. As to the kind of experiment: Bactericidal activity against Mycobacterium tuberculosis Erdman infected in mouse bone marrow macrophage monolayers assessed as reduction in colony forming units at 4 fold MIC concentration after 7 days. The class given is functional. To be noted: Erdman = ATCC 35801, 168 h.
Data set [6] deals with Mycobacterium tuberculosis. In words: Antitubercular activity against Mycobacterium tuberculosis H37Rv ATCC 27294 at 6.25 ug/ml by MABA. It is filed as functional.

Molecules are shown by their SMILES. In brackets after ≈: the same amount, converted by molar mass. Bounds are passed on as bounds.

Usually EC90 stands for the concentration needed for an effect of 90%. The MIC90 is the lowest concentration that inhibits either 90% of growth or 90% of the strains tested, depending on the study. By IC50 is commonly meant the midpoint of a concentration-inhibition curve. In general, EC99 refers to the point of the concentration-response curve where the effect stands at 99%. Broadly, the inhibition is the percentage by which the read-out fell short of the control. In the case of `CCCCc1nc(Cl)c(C2NC(=O)NC(C)=C2C(=O)Nc2ccc(F)cc2)[nH]1` (stereo not given), the selectivity ratio in data set [1] is > 25.6. In addition, the EC90 in data set [2] is 0.039 µg/mL (≈ 0.0961 µM). In data set [3], the MIC90 was found to be 0.39 µg/mL (≈ 0.961 µM). In the data set with Vero, the IC50 is > 10 µg/mL. Also, the Ratio in data set [4] is listed as 0.1. The EC99 in data set [5] amounted to 0.54 µg/mL. Moreover, testing at 6.25 µg/mL in data set [6] gave an inhibition of 99%.

Compound `CCCCc1nc(Cl)c(C2NC(=O)NC(C)=C2C(=O)Nc2cccc(F)c2)[nH]1` (stereo not given) had an inhibition at 6.25 µg/mL in data set [6] of 85%.

On to `CCCCc1nc(Cl)c(C2NC(=O)NC(C)=C2C(=O)Nc2ccccc2C)[nH]1` (stereo not given), for which the inhibition at 6.25 µg/mL in data set [6] turned out to be 63%.

As to `CCCCc1nc(Cl)c(C2NC(=O)NC(C)=C2C(=O)Nc2ccc(OC)cc2)[nH]1` (stereo not given), the inhibition at 6.25 µg/mL in data set [6] stood at 89%.

In turn, `CCCCc1nc(Cl)c(C2NC(=O)NC(C)=C2C(=O)Nc2ccc(C)cc2)[nH]1` (stereo not given) showed an inhibition at 6.25 µg/mL in data set [6] of 72%.

Consider `CCCCc1nc(Cl)c(C2NC(=O)NC(C)=C2C(=O)Nc2cccc(OC)c2)[nH]1` (stereo not given), for which, in data set [6], the inhibition at 6.25 µg/mL came to 72%.

`CCCCc1nc(Cl)c(C2NC(=O)NC(C)=C2C(=O)Nc2cccc([N+](=O)[O-])c2)[nH]1` (stereo not given) showed an inhibition at 6.25 µg/mL in data set [6] of 76%.

`CCCCc1nc(Cl)c(C2NC(=O)NC(C)=C2C(=O)Nc2ccccc2F)[nH]1` (stereo not given): the selectivity ratio in data set [1] is > 3.12. In data set [3], this compound returned an MIC90 of 3.12 µg/mL (≈ 7.69 µM). In addition, in the data set with Vero, the IC50 is > 10 µg/mL. At 6.25 µg/mL the inhibition in data set [6] was 90%.

Regarding `CCCCc1nc(Cl)c(C2NC(=O)NC(C)=C2C(=O)Nc2ccc([N+](=O)[O-])cc2)[nH]1` (stereo not given), the selectivity ratio in data set [1] was > 12.8. Also, the 90% effect concentration (EC90) in data set [2] was 0.074 µg/mL (≈ 0.171 µM). For the same compound, the MIC90 in data set [3] came out at 0.78 µg/mL (≈ 1.8 µM). The IC50 in the data set on Vero was > 10 µg/mL. In data set [4], the Ratio is listed as 0.09. Also, in data set [5], the EC99 was found to be 0.59 µg/mL. For the same compound, the inhibition at 6.25 µg/mL in data set [6] turned out to be 98%.

Consider `CCCCc1nc(Cl)c(C2NC(=O)NC(C)=C2C(=O)Nc2ccccc2Cl)[nH]1` (stereo not given), for which the selectivity ratio in data set [1] turned out to be 4.87. Also, the MIC90 in data set [3] amounted to 1.56 µg/mL (≈ 3.69 µM). Moreover, the half-maximal inhibitory concentration (IC50) with Vero is 7.6 µg/mL (≈ 18 µM). The compound also came in with an inhibition at 6.25 µg/mL in data set [6] of 92%.

Consider `CCCCc1nc(Cl)c(C2NC(=O)NC(C)=C2C(=O)Nc2cccc(Cl)c2)[nH]1` (stereo not given), for which the inhibition at 6.25 µg/mL in data set [6] was 89%.

Take `NNC(=O)c1ccncc1` [ISONIAZID]: in data set [1], the selectivity ratio was > 40000. In data set [2], the EC90 is 0.03 µg/mL (≈ 0.219 µM). In addition, the MIC90 in data set [3] lay within 0.03 to 0.06 µg/mL (≈ 0.219 to 0.438 µM). Besides, the Ratio in data set [4] is given as 1. In data set [5], the concentration for an effect of 99% (EC99) was determined as 0.42 µg/mL.

For `CCCCc1nc(Cl)c(C2NC(=O)NC(C)=C2C(=O)Nc2ccccc2)[nH]1` (stereo not given), in data set [6], testing at 6.25 µg/mL gave an inhibition of 59%.

In data set [6], `CCCCc1nc(Cl)c(C2NC(=O)NC(C)=C2C(=O)Nc2ccccc2OC)[nH]1` (stereo not given) came in with an inhibition at 6.25 µg/mL of 79%.

Take `CCCCc1nc(Cl)c(C2NC(=O)NC(C)=C2C(=O)Nc2ccc(Cl)cc2)[nH]1` (stereo not given): in data set [1], the selectivity ratio was found to be 24.1. The 90% effect concentration (EC90) in data set [2] worked out at 0.102 µg/mL (≈ 0.242 µM). The compound also gave an MIC90 in data set [3] of 0.39 µg/mL (≈ 0.923 µM). Further, the IC50 with Vero came out at 9.4 µg/mL (≈ 22.3 µM). Also, the Ratio in data set [4] is on record as 0.26. Besides, in data set [5], the 99% effect concentration (EC99) was determined as 0.69 µg/mL. Also, testing at 6.25 µg/mL in data set [6] gave an inhibition of 97%.

Regarding `CCCCc1nc(Cl)c(C2NC(=O)NC(C)=C2C(=O)Nc2cccc(C)c2)[nH]1` (stereo not given), in data set [6], testing at 6.25 µg/mL gave an inhibition of 65%.

`CCCCc1nc(Cl)c(C2NC(=O)NC(C)=C2C(=O)Nc2ccccc2[N+](=O)[O-])[nH]1` (stereo not given) came in with an inhibition at 6.25 µg/mL in data set [6] of 82%.

The values are drawn from ChEMBL document CHEMBL4425147, “Preparation, biological evaluation and molecular docking study of imidazolyl dihydropyrimidines as potential Mycobacterium tuberculosis dihydrofolate reductase inhibitors” (Bioorg Med Chem Lett, 2016).
